What was measured:
[1] = Half-life in human liver microsomes (HLM), HLM CLint; type: in vitro ADME; settings: for CLint scaled at 1 microM: human, human liver microsomes (XTreme 200), 1 microM test compound, 0.61 mg protein/mL HLM, pH 7.4, 37° C., read-out: HLM CLint (clearance in human liver microsome); for Ratio of HLM CLint over comparison 1: ratio between comparison compound 1 and the example
Procedure: Half-Life in Human Liver Microsomes (HLM)
Test compounds (1 microM) are incubated with 1 mM MgCl2 and 0.61 mg protein/mL HLM (XTreme 200) in 100 mM phosphate buffer (pH 7.4) at 37° C. on the 96-deep well plate. An aliquot of samples is collected at […], where 0 […] the time when NADPH is added into the reaction mixture. Collected aliquots are extracted with acetonitrile solution containing an internal standard. The precipitated protein is spun down in centrifuge (2000 rpm, […]). The compound concentration in supernatant is measured by LC/MS/MS system.
The half-life value is obtained by plotting the natural logarithm of the peak area ratio of compound/internal standard versus time. The slope of the line of the best fit through the points yields the elimination rate constant (kel). This is converted to a half-life value using a following equation: Half-life=1n2/kel.

[2] = target: T1, human ghrelin receptor (Homo sapiens, UniProt Q92847); assay: Ghrelin receptor agonistic activity induced Ca2+ influx in HEK293 cells stably expressing human ghrelin receptor; type: cell-based; settings: 11-point dose-response
T1 construct: expressed in transfected cells; host or cells: HEK293
Procedure: Measurement of the ghrelin receptor agonistic activity induced Ca^2+ influx in HEK293 cells stably expressing human ghrelin receptor
HEK293 cells stably expressing human ghrelin receptor are maintained in Dulbecco's modified Eagle medium (high glucose) supplemented with 10% fetal bovine serum, 100 units/mL penicillin, 100 microg/mL streptomycin and 500 microg/mL G418 at 37° C. in a humidified incubator with 5% CO2 and grown to 60-80% confluence. The day before the assay, the cells are seeded on poly-D-lysine coated 384-well plates (BD FALCON) at a density of 10,000 cells per well and incubated overnight in incubator.
On the day of the assay, the cells are washed at three times with assay buffer (Hanks' balanced salt solution with 20 mM HEPES, pH7.4), and are incubated for 1 hour at room temperature to load 0.5 microM Fluo-4 AM reagent (Invitrogen).
After removing Fluo-4, and washing with assay buffer, the cells are added with various concentrations of the compounds. The changes in intracellular calcium concentration are monitored with the fluorescence imaging plate reader, FDSS6000 (Hamamatsu Photonics).
The EC50 values for compounds of the present invention are determined from 11-point dose-response studies. Curves are generated using the average of duplicate wells for each data point. Finally, the EC50 values are calculated using the best-fit dose curve determined by XLfit (ID Business Solutions Ltd).

T1 sequence (Q92847 whole entry): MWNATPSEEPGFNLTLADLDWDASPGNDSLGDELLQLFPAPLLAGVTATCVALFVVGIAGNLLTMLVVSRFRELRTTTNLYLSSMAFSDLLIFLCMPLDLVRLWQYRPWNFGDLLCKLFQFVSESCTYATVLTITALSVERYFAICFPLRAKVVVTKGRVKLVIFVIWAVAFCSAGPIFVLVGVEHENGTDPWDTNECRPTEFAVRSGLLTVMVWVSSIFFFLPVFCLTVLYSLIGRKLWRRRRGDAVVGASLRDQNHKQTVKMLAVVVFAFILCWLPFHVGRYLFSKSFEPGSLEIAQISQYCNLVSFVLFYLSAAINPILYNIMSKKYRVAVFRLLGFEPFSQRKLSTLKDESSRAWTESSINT

Structure (SMILES) | CLint scaled at 1 microM [1] [mL/min/kg] | Ratio of HLM CLint over comparison 1 [1] | EC50 [2] [nM]
CN1N=C2CCN(C(=O)[C@@H](CCc3ccccc3)NC(=O)C(C)(C)N)C[C@@]2(Cc2ccccc2)C1=O [Example 2, 2-amino-N—((R)-1-((R)-3a-benzyl-2-methyl-3-oxo-3a,4,6,7-tetrahydro-2H-pyrazolo[4,3-c]pyridin-5(3H)-yl)-1-oxo-4-phenylbutan-2-yl)-2-methylpropanamide] | 54.5 | 2.4 | < 20
CN1N=C2CCN(C(=O)[C@@H](CCc3cc(CO)ccc3F)NC(=O)C(C)(C)N)C[C@@]2(Cc2ccccc2)C1=O [Example 5, 2-amino-N—((R)-1-((R)-3a-benzyl-2-methyl-3-oxo-3a,4,6,7-tetrahydro-2H-pyrazolo[4,3-c]pyridin-5(3H)-yl)-4-(2-fluoro-5-(hydroxymethyl)phenyl)-1-oxobutan-2-yl)-2-methylpropanamide] | 44.6 | 2.9 | < 20
CN1N=C2CCN(C(=O)[C@@H](CCCc3cccc(CO)c3)NC(=O)C(C)(C)N)C[C@@]2(Cc2ccccc2)C1=O [Example 7, 2-amino-N—((R)-1-((R)-3a-benzyl-2-methyl-3-oxo-3a,4,6,7-tetrahydro-2H-pyrazolo[4,3-c]pyridin-5(3H)-yl)-5-(3-(hydroxymethyl)phenyl)-1-oxopentan-2-yl)-2-methylpropanamide] | 53.5 | 2.4 | < 20
CN1N=C2CCN(C(=O)[C@@H](CCCc3cccc(C(F)(F)F)n3)NC(=O)C(C)(C)N)C[C@@]2(Cc2ccccc2)C1=O [Example 10, 2-amino-N—((R)-1-((R)-3a-benzyl-2-methyl-3-oxo-3a,4,6,7-tetrahydro-2H-pyrazolo[4,3-c]pyridin-5(3H)-yl)-1-oxo-5-(6-(trifluoromethyl)pyridin-2-yl)pentan-2-yl)-2-methylpropanamide] | 44.2 | 2.9 | < 20
CC(C)(N)C(=O)N[C@H](CCc1ccc(F)cc1CO)C(=O)N1CCC2=NN(CC(F)(F)F)C(=O)[C@]2(Cc2ccccn2)C1 [Example 17, 2-amino-N—((R)-4-(4-fluoro-2-(hydroxymethyl)phenyl)-1-oxo-1-((R)-3-oxo-3a-(pyridin-2-ylmethyl)-2-(2,2,2-trifluoroethyl)-3a,4,6,7-tetrahydro-2H-pyrazolo[4,3-c]pyridin-5(3H)-yl)butan-2-yl)-2-methylpropanamide] | 56.7 | 2.3 | < 20

Continued, values first:

CLint scaled at 1 microM [1] [mL/min/kg] | Ratio of HLM CLint over comparison 1 [1] | EC50 [2] [nM] | Structure (SMILES)
43.5 | 3.0 | < 20 | CN1N=C2CCN(C(=O)[C@@H](CCc3ccc(CO)cc3Cl)NC(=O)C(C)(C)N)C[C@@]2(Cc2ccccc2)C1=O [Example 3, 2-amino-N—((R)-1-((R)-3a-benzyl-2-methyl-3-oxo-3a,4,6,7-tetrahydro-2H-pyrazolo[4,3-c]pyridin-5(3H)-yl)-4-(2-chloro-4-(hydroxymethyl)phenyl)-1-oxobutan-2-yl)-2-methylpropanamide]
21.7 | 6.0 | < 20 | CN1N=C2CCN(C(=O)[C@@H](CCc3ccc(CO)cc3F)NC(=O)C(C)(C)N)C[C@@]2(Cc2ccccc2)C1=O [Example 4, 2-amino-N—((R)-1-((R)-3a-benzyl-2-methyl-3-oxo-3a,4,6,7-tetrahydro-2H-pyrazolo[4,3-c]pyridin-5(3H)-yl)-4-(2-fluoro-4-(hydroxymethyl)phenyl)-1-oxobutan-2-yl)-2-methylpropanamide]
48.5 | 2.7 | < 20 | CN1N=C2CCN(C(=O)[C@@H](CCCc3ccccc3CO)NC(=O)C(C)(C)N)C[C@@]2(Cc2ccccc2)C1=O [Example 8, 2-amino-N—((R)-1-((R)-3a-benzyl-2-methyl-3-oxo-3a,4,6,7-tetrahydro-2H-pyrazolo[4,3-c]pyridin-5(3H)-yl)-5-(2-(hydroxymethyl)phenyl)-1-oxopentan-2-yl)-2-methylpropanamide]
19.7 | 6.6 | < 20 | CN1N=C2CCN(C(=O)[C@@H](CCCc3ccccn3)NC(=O)C(C)(C)N)C[C@@]2(Cc2ccccc2)C1=O [Example 9, 2-amino-N—((R)-1-((R)-3a-benzyl-2-methyl-3-oxo-3a,4,6,7-tetrahydro-2H-pyrazolo[4,3-c]pyridin-5(3H)-yl)-1-oxo-5-(pyridin-2-yl)pentan-2-yl)-2-methylpropanamide]
36 | 3.6 | < 20 | CN1N=C2CCN(C(=O)[C@@H](CCCc3cccc(C(F)F)n3)NC(=O)C(C)(C)N)C[C@@]2(Cc2ccccc2)C1=O [Example 13, 2-amino-N—((R)-1-((R)-3a-benzyl-2-methyl-3-oxo-3a,4,6,7-tetrahydro-2H-pyrazolo[4,3-c]pyridin-5(3H)-yl)-5-(6-(difluoromethyl)pyridin-2-yl)-1-oxopentan-2-yl)-2-methylpropanamide]
51.5 | 2.5 | < 20 | CC(C)(N)C(=O)N[C@H](CCc1ccccc1)C(=O)N1CCC2=NN(CC(F)(F)F)C(=O)[C@]2(Cc2ccccn2)C1 [Example 14, 2-amino-2-methyl-N—((R)-1-oxo-1-((R)-3-oxo-3a-(pyridin-2-ylmethyl)-2-(2,2,2-trifluoroethyl)-3a,4,6,7-tetrahydro-2H-pyrazolo[4,3-c]pyridin-5(3H)-yl)-4-phenylbutan-2-yl) propanamide]

From patent US9901571B2, “Tetrahydropyrazolopyridine derivatives as ghrelin receptor agonists” (RaQualia Pharma Inc., priority 2014, dated 2018)
